The experiment deals with blood. As to the kind of experiment: Effect of tranexamic acid on blood coagulation (Example 5). It is filed as cell-based. The following applies: Experimental Condition F: 0.25 mL of 0.02/0.05/0.1 wt % tranexamic acid in distilled water alone; 0.5 mL blood. The method, then: While tranexamic acid, a hemostatic agent with antifibrinolytic activity, was used under the above-described conditions, the time taken to induce blood clots was monitored.
—Experimental Condition A • 1. 0.5 mL of blood was placed on each Petri-dish. • 2. A mixture of 0.25 mL of the solution of Example 1 and 0.25 mL of the 1 wt % calcium chloride solution containing 0.71 wt % of DOPA and 0.02 wt % of tranexamic acid was added to the Petri-dish of 1. • 3. A mixture of 0.25 mL of the solution of Example 1 and 0.25 mL of the 1 wt % calcium chloride solution containing 0.71 wt % of DOPA and 0.05 wt % of tranexamic acid was added to the Petri-dish of 1. • 4. A mixture of 0.25 mL of the solution of Example 1 and 0.25 mL of the 1 wt % calcium chloride solution containing 0.71 wt % of DOPA and 0.1 wt % of tranexamic acid was added to the Petri-dish of 1. • 5. Reactions in the Petri-dishes were observed.
—Experimental Condition B • 1. 0.5 mL of blood was placed on each Petri-dish. • 2. A mixture of 0.25 mL of the solution of Example 1 and 0.25 mL of the 1.5 wt % calcium chloride solution containing 0.67 wt % of DOPA and 0.02 wt % of tranexamic acid was added to the Petri-dish of 1. • 3. A mixture of 0.25 mL of the solution of Example 1 and 0.25 mL of the 1.5 wt % calcium chloride solution containing 0.67 wt % of DOPA and 0.05 wt % of tranexamic acid was added to the Petri-dish of 1. • 4. […]

On to `NC[C@H]1CC[C@H](C(=O)O)CC1` [tranexamic acid], for which the blood coagulation rate entry was “at lower rates than when in the presence of the esterified atelocollagen”.
